Measurements from the NIST ThermoML archive (doi:10.1016/j.jct.2013.06.009).

Experiment: mn = molality of the nth substance listed, in mol/kg
Details: 101.33 kPa, Liquid; for viscosity: Capillary tube (Ostwald / Ubbelohde) method; for mass density: Vibrating tube method

CO/N=C(\C(=O)N[C@@H]1C(=O)N2C(C(=O)O)=C(C[N+]3(C)CCCC3)CS[C@H]12)c1csc(N)n1.Cl.[Cl-] [cefepime dihydrochloride] + O
Details	mass density, 278.15 K [kg/m3]	mass density, 283.15 K [kg/m3]	mass density, 288.15 K [kg/m3]	mass density, 293.15 K [kg/m3]	viscosity, 278.15 K [mPa·s]	viscosity, 283.15 K [mPa·s]	viscosity, 288.15 K [mPa·s]	viscosity, 293.15 K [mPa·s]
m1 = 0.01005	1002	1001.73	1001.11	1000.2	1.544	1.324	1.148	1.013
m1 = 0.02017	1004.01	1003.73	1003.1	1002.18	1.57	1.348	1.17	1.031
m1 = 0.0304	1006.02	1005.73	1005.08	1004.15	1.597	1.371	1.19	1.049
m1 = 0.05103	1009.98	1009.67	1008.98	1008.03	1.649	1.416	1.228	1.082
m1 = 0.07222	1013.97	1013.62	1012.89	1011.91	1.705	1.463	1.269	1.12
m1 = 0.09333	1017.86	1017.47	1016.7	1015.7	1.766	1.517	1.316	1.161
m1 = 0.1154	1021.84	1021.4	1020.61	1019.57	1.824	1.566	1.359	1.199
m1 = 0.1343	1025.19	1024.71	1023.89	1022.82	1.88	1.613	1.4	1.235
m1 = 0.1521	1028.29	1027.79	1026.93	1025.83	1.937	1.663	1.443	1.273
